# Experimental data: patent US10220025B1, “Self-emulsifying formulation of CARP-1 functional mimetics” (Florida A&M University, priority 2016, dated 2019)
# “Also recorded” adds a separate entry of the source. Where two headings read alike, the source gives them in different places.
# Tests used:
# TNBC and NSCLC cells = settings: cited from earlier work
# [1] = tested on: MDA-MB-468 TNBC cells, wild type; assay: MTT viability assay, parental MDA-MB-468; format: cell-based, human; settings: for inhibition of viability compared with CFM-4: 20 μM, 24 h, FIG. 3A
# Protocol: (§2) In vitro inhibition of cell growth was assessed by MTT (3-[4, 5-dimethyltiazol-2-yl]-2.5-diphenyl tetrazolium bromide) reagent. Cells (5×10^3) were seeded in a 96-well culture plate and subsequently treated with respective agents at different concentrations as mentioned. Control cells were treated with 0.1% DMSO in culture medium. After treatment, the cells were incubated with 1 mg/ml of MTT reagent at 37° C. for 2-4 hours and then MTT was removed and 50 μL of DMSO was added, followed by colorimetric analysis using a multi-label plate reader at 560 nm (Victor3; PerkinElmer, Wellesley, Mass., USA).
# [2] = tested on: HeLa cervical cancer cells; assay: MTT viability assay, HeLa; format: cell-based; settings: 20 μM; 24 h; FIG. 3A
# Text: The current inventors' previous studies have indicated cancer cell growth inhibitory properties of CFMs in particular CFM-4 and CFM-5 [Puliyappadamba et al.]. […] J. Biomed. Nanotechnol. 2015; 11:1608-1627]. […] J. Biomed. Nanotechnol. 2015; 11:1608-1627]. On the basis of these findings, it was speculated that solubility and/or potency of the CFM-4 scaffold could be improved for its utility as a novel anti-TNBC molecule. To address this possibility, twelve (12) additional analogs of CFM-4 (Table 2) were synthesized using medicinal chemistry based structure activity relationship (SAR) studies. Each of the analog was suspended in DMSO, and their potency was evaluated in cell culture studies utilizing HeLa cervical cancer, MDA-MB-468 TNBC, and H2461 malignant pleural mesothelioma (MPM) cells by MTT based assays. […] Moreover, a 10 μM dose of CFM-4 inhibited MDA-MB-231 and MDA-MB-468 viabilities by ˜30% and 45%, respectively.
# TNBC cells = assay: MTT viability assay, parental TNBC cells (lines not singled out); format: cell-based
# Protocol: as §2
# [3] = tested on: Src, MET, and STAT3 kinases in TNBC cells; assay: Western blot, oncogenic tyrosine kinases; format: cell-based; settings: parental and drug-resistant human and murine TNBC cells
# Protocol: For protein expression analysis, Western blot (WB) experiments were performed according to the standard procedures. The cells were either untreated or treated with various agents either alone or in combinations as indicated. Following treatment durations, the cells were lysed in cell lysis (10×) buffer (#9803; cell signaling) containing 0.1% of protease and phosphatase inhibitor cocktail (Sigma) for 20 min at 4° C. The lysates were centrifuged at 14,000 rpm at 4° C. for 15-20 min to remove debris. Protein concentrations of whole cell lysates were determined using the Protein Assay Kit. Supernatant proteins, 50-100 μg from each sample, were separated by SDS-polyacrylamide gel electrophoresis (SDS-PAGE) and transferred to polyvinylidene difluoride (PVDF) membrane (Bio-rad, Hercules, Calif.) by standard procedures. […] The antibody-bound proteins were visualized by treatment with the chemiluminescence detection reagent according to manufacturer's instructions, followed by exposure to X-ray film (Denville Scientific Inc.). The same membranes were re-probed with the anti-β-actin or anti-α-tubulin antibody, which was used as an internal control for protein loading.
# [4] = tested on: parental and drug-resistant TNBC and SKBR-3 cells; assay: soft-agar clonogenic assay; format: cell-based; settings: 10 μM; FIGS. 11D, 12C, 12D, 13C
# Protocol: A soft-agar sandwich assay was performed. Cells were sandwiched between 0.6% and 0.3% agarose in DMEM medium containing 5% FBS in a six-well chamber (500 cells/chamber), and treated with buffer (Control), or respective agent for noted time and dose at 37° C. humidified CO2 incubator. The colonies from multiple random fields were counted, compared to control and photographed essentially as described before [Jamal S, Cheryan V T, Muthu M, Munie S, Levi E, Ashour A E, Pass H I, Wali A, Singh M, Rishi A K. CARP-1 functional mimetics are a novel class of small molecule inhibitors of malignant pleural mesothelioma cells. PLos One. 2014; 9:e891; Ashour A E, Jamal S, Cheryan V T, Muthu M, Zoheir K M A, Alafeefy A M, Abd-allah A R, Levi E, Tarca A L, Polin L A, Rishi A K. CARP-1 functional mimetics: A novel class of small molecule inhibitors of medulloblastoma cell growth. PLoS One. 2013; 8:e66733; Zhang L, Levi E, Majumder P, Yu Y, Aboukameel A, Du J, Xu H, Mohammad R M, Hatfield J S, Wali A, Adsay V, Majumdar A P N, Rishi A K. Transactivator of transcription tagged cell cycle and apoptosis regulatory protein-1 peptides suppress growth of human breast cancer cells in vitro and in vivo. Mol Cancer Ther. 2007; 6:1661-1672].
# [5] = tested on: Adriamycin-resistant (ADR-R) MDA-MB-468 sublines; assay: MTT viability assay, ADR-resistant MDA-MB-468 sublines; format: cell-based, human; settings: ADR-resistant MDA-MB-468 subline 1; FIG. 5E
# Protocol: (§1) Human TNBC MDA-MB-468 and MDA-MB-231, and mouse TNBC 4T1 cells were cultured in the chronic presence (>10 months) of Doxorubicin. The parental, wild-type cells were initially treated with 200 nM Doxorubicin for 2-3 weeks, followed by escalation to 400 nM, 1 μM, and 2 μM doses over a period of 3-4 weeks for each dose till resistance developed and the cells became well adapted to growth in […] of Doxorubicin for their routine culture. In the case of Cisplatin however, the human TNBC MDA-MB-468 and MDA-MB-231 were initially cultured in continuous presence of 1 μM Cisplatin for 3-4 weeks, and the dose was escalated to 1.5 μM and 3 μM over periods of 3-4 weeks for each dose till resistance developed and cells became adapted to routine culture in 3 μM dose. Subsequent, routine maintenance of the resistant cells in the presence of the respective drug was continued and multiple, resistant sublines for each of the TNBC cells were isolated and characterized for their growth inhibitory (GI)50 dose of respective therapeutic by the MTT-based viability assays as below.
# [6] = tested on: TNBC and non-small cell lung cancer cell-derived xenografts; settings: SCID mice; cited from earlier work
# [7] = tested on: parental and drug-resistant TNBC and SKBR-3 cells; assay: scratch/wound healing cell migration assay; format: cell-based; settings: FIGS. 11B, 11C, 12A, 12B, 13A, 13B
# Protocol: The TNBC cells migration in the absence or presence of CFMs was measured by the “scratch/wound healing” assay. Cells were seeded in a 6-well plate (˜10,000 cells/well), and when attached, a scratch was created in the cell monolayer using sterile pipette tip. The cells were then allowed to continue growing in the absence (Control) or presence of noted dose of each of the agents for indicated time periods. The cells were photographed at the beginning and at regular intervals during the treatment period, and the images from control cells were compared with the treated cells to determine the migration of the cells essentially as described before [Liang C C, Park A Y, Guan J L In vitro scratch assay: a convenient and inexpensive method for analysis of cell migration in vitro. Nat Protoc. 2007; 2:329-33]. The photomicrographs of the cells were recorded under different magnifications utilizing Zeiss microscope with attached 35 mm camera.
# [8] = tested on: MDA-MB-231 TNBC cells, wild type; assay: MTT viability assay, parental MDA-MB-231; format: cell-based, human
# Protocol: as §2
# HUVECs = assay: in vitro tubule formation (angiogenesis) assay; format: cell-based, human; settings: 12 hours; FIG. 11A
# Protocol: The growth of tubules was monitored over a period of 12 hours. The cells growth in the scratch assay was recorded by photography. Representative photomicrographs of control and treated cells are presented.
# It was next investigated whether CFM-4.16 inhibited TNBC cell migration and growth as colonies in soft agar and 3-dimensional cultures in vitro. In addition, an in vitro tubule formation assay was conducted to determine anti-angiogenic properties of CFM-4.16. […] Moreover, treatments with CFM-4 or CFM-4.16 prevented the parental as well as drug (ADR- or cisplatin-) resistant TNBC sublines and the parental and Herceptin-resistant, Her-2-positive SKBR-3 cells from growing in the areas of wound caused by a scratch (FIGS. 11B, 11C, 12A, 12B, 13A, and 13B).
# solubility observations = format: physicochemical
# [9] = tested on: Cisplatin-resistant (Cis-R) MDA-MB-231 sublines; assay: MTT viability assay, Cisplatin-resistant MDA-MB-231 sublines; format: cell-based, human
# Protocol: as §1
# [10] = tested on: Cisplatin-resistant (Cis-R) MDA-MB-468 sublines; assay: MTT viability assay, Cisplatin-resistant MDA-MB-468 sublines; format: cell-based, human
# Protocol: as §1
# [11] = tested on: 4T1 TNBC cells, wild type; assay: MTT viability assay, parental 4T1; format: cell-based, mouse; settings: FIG. 10; single agent
# Protocol: as §2
# [12] = tested on: parental and drug-resistant human TNBC cells; settings: human, 12 h
# Protocol: Control cells were treated with 0.1% DMSO in culture medium.
compound,measurement,setting,value
O=C1N(Cc2cccc3ccccc23)c2ccccc2C12NN=C(c1ccccc1)S2 (stereo not shown) [CFM-4.6],growth of TNBC and NSCLC cells,TNBC and NSCLC cells,inhibited growth
O=C1N(Cc2ccc3ccccc3c2)c2ccccc2C12NN=C(c1ccccc1)S2 (stereo not shown) [CFM-4.8],inhibition of viability compared with CFM-4,[1],greater inhibition of viability
COc1ccc2c(c1)C1(NN=C(c3ccccc3)S1)C(=O)N2Cc1ccccc1Cl (stereo not shown) [CFM-4.11],inhibition of viability compared with CFM-4,[1],greater inhibition of viability
COc1cccc(C2=NNC3(S2)C(=O)N(Cc2ccccc2Cl)c2ccccc23)c1 (stereo not shown) [CFM-4.17],inhibition of viability compared with CFM-4,[2],greater inhibition of viability
same,inhibition of viability compared with CFM-4,[1],greater inhibition of viability
same,activity relative to parent compound CFM-4 or other analogs,TNBC cells; SAR screen of twelve analogs,superior
O=C1N(Cc2ccccc2Cl)c2ccccc2C12NN=C(c1ccccc1)S2 (stereo not shown) [CFM-4],activation and/or expression of MET and Src tyrosine kinases,[3],reduced activation and/or expression
same,colonies formed in soft agar,[4],significant reduction in size and number of colonies
same,effect of siRNA-mediated depletion of CARP-1 on growth inhibition by the compound,[5],interfered with growth inhibition
same,inhibition / loss of cell viability,[1]; 10 μM dose,~45%
same,"xenograft growth inhibition / T/C, intravenous DMSO+cremophor preparation",[6],failed to inhibit growth; also recorded: lack therapeutic T/C values
same,growth of TNBC and NSCLC cells,TNBC and NSCLC cells,inhibited growth
same,growth of cells in the areas of wound caused by a scratch,[7],prevented
same,inhibition / loss of cell viability,[8]; 10 μM dose,~30%
same,tubule formation by HUVECs compared with untreated control,HUVECs,disruption of tubule formation
same,aqueous solubility,solubility observations,poor aqueous solubility
N.N.[Cl][Pt][Cl] [Cisplatin],GI50,"[9]; 72 h, Cis-R Clones 1-6, read-out: GI50",≥ 150 µM
same,"GI50 dose higher than wild-type, parental counterparts",[9]; cisplatin-resistant MDA-MB-231 vs parental,≥ 90 fold
same,GI50,"[9]; read-out: GI50 dose, Cisplatin-resistant MDA-MB-231 sublines",≥ 150 µM
same,GI50,"[10]; 72 h, Cis-R Clone 1-2, read-out: GI50",~6.6 µM
same,GI50,"[10]; 72 h, Cis-R Clone 3, read-out: GI50",~12 µM
same,GI50,"[10]; 72 h, Cis-R Clones 4-6, read-out: GI50",~15 µM
same,"GI50 dose higher than wild-type, parental cells",[10]; cisplatin-resistant MDA-MB-468 vs parental,4-9 fold
same,GI50,"[10]; read-out: GI50 dose, Cisplatin-resistant MDA-MB-468 sublines",6 to 15 µM
same,GI50,"[1]; 72 h, Wild type",~1.65 µM
same,GI50,"TNBC cells; 72 h treatment period, read-out: GI50 doses, both the parental TNBC cell lines",~1.65 µM
same,GI50,"TNBC cells; parental cells, read-out: GI50 dose, parental cells",1.65 µM
same,GI50,"[8]; 72 h, Wild type",~1.65 µM
Cc1nc(Nc2ncc(C(=O)Nc3c(C)cccc3Cl)s2)cc(N2CCN(CCO)CC2)n1 [Dasatinib],reduction / loss of viability,[11],~60%
same,"loss of viability, single agent",[12],20-40%
O=C1NC(=O)[C@@H](c2cn3c4c(cccc24)CCC3)[C@@H]1c1c[nH]c2ccccc12 [Tivatinib],"loss of viability, single agent",[12],20-40%
